Values of other authors as cited in patent US12127976B2, “Eye-mountable therapeutic devices, and associated systems and methods” (Twenty Twenty Therapeutics LLC, priority 2018, dated 2024).
Counter-ions that a name gives are not always drawn.

Experiments:
[1] = after topical administration; formulated as salts
[2] = in aqueous humor

Row | estimated half-life [2] [h] | Structure (SMILES) | time at which the maximum effect can be detected [1]
1 |  | CC(C)(C)NC[C@H](O)COc1nsnc1N1CCOCC1 [timolol maleate] | about 2 hours
2 |  | CC(C)NCC(O)COc1ccc(CCOCC2CC2)cc1 (stereo not drawn) [betaxolol] | about 2 hours
3 | ~2.8 | O=C(O)CCC/C=C\C[C@@H]1[C@@H](CC[C@@H](O)CCc2ccccc2)[C@H](O)C[C@@H]1O [latanoprost acid] | 
